In publication PMC9886266, “New [1,2,4]triazolo[4,3-c]quinazolines as intercalative Topo II inhibitors: Design, synthesis, biological evaluation, and in silico studies” (PLOS ONE, 2023):

Legend:
[1] = tested on: Activated Calf Thymus DNA; assay: DNA/methyl green assay (DNA intercalation); format: binding
Method: The most promising members (13a, 14a, 16, 17, 18, 19, and 20) were further investigated for their binding affinity against DNA. […] The results of DNA-binding affinities were reported in Table 1 as IC50 values calculated from the concentration-inhibition response curve.
Activated Calf Thymus DNA (Merk, Germany) was treated with methyl green (Merk, Germany), then the synthesized compounds were applied to displace the methyl green dye, producing equivalent color.
After that, the DNA was run on 1% agarose gel in BioRad gel electrophoresis system for 1–2 h followed by staining with GelRedTM stain for 2 h and destained for 15 min with TAE buffer. The gel was imaged via BioRad’s Gel DocTMEZ system. Both supercoiled and linear strands DNA were incorporated in the gel as markers for DNA-Topo II intercalators. The results of IC50 values were calculated using the GraphPad Prism version 7. Each reaction was performed in duplicate, and at least three independent determinations of each IC50 were made.
S2.3. DNA/Methyl Green Assay […]
methyl green dye method described by Burres et al. Activated Calf Thymus DNA (Merk, Germany) was treated with methyl green (Merk, Germany), then the synthesized compounds were applied to displace the methyl green dye, producing equivalent color. […]

Bcl-2 = assay: Western blot, Bcl-2 level; format: cell-based, human; conditions: HCT-116, 2.44 μM, 48 h
Method: In comparison to the control, compound 16 elevated the level of the proapoptotic protein (BAX) by 2.18 times. […] Furthermore, compound 16 enhanced the BAX/Bcl-2 ratio by 4.38-fold in comparison to control cells.
The effects of compound 16 on the expression of BAX, and Bcl‐2 were determined using Western blot analysis [62–64]as described in Electronic Supplementary Material S2.7 in S1 Appendix. […]
for 48 h. Then, the cells were fixed in 70% ethanol at 4 °C for 12 h. After that, the cells were washed with cold PBS, incubated with 100 μl RNase A at 37 °C for 30 min, and stained with 400 μl PI in the dark at room temperature for further 30 min. The stained cells were measured using Epics XL-MCL™ Flow Cytometer (Beckman Coulter), and the data were analyzed using Flowing software (version 2.5.1, Turku Centre for Biotechnology, Turku, Finland).
(§1) S2.6. Flow cytometry analysis for apoptosis
Flow cytometry cell apoptosis analysis was used to investigate the apoptotic effect of the synthesized compounds. […] The stained cells were measured using Epics XL-MCL™ Flow Cytometer and analyzed using Flowing software. […]
The proteins expression of BAX, and Bcl‐2 were determined using Western blot analysis. […] Total protein concentrations in the supernatant were determined colorimetrically using the Pierce 660 nm Protein Assay method (Thermo Fisher Scientific, Rockford, IL), with BSA as the standard. […]

HCT-116 cells = assay: Flow cytometry apoptosis analysis (Annexin V and PI double staining); format: cell-based, human; conditions: HCT-116, 2.44 μM, 48 h
Method: The Annexin V and PI double staining experiment was used to further investigate the apoptotic effect of compound 16 in HCT-116 cells. In this process, HCT-116 cells were treated with compound 16 at a concentration of 2.44 μM and incubated for 48 h. The apoptotic effect of compound 16 on HCT-116 cells was about nine times greater than that of untreated HCT-116 cells. In comparison to control cells (5.62%), compound 16 caused 48.82% programmed cell death (early apoptosis = 46.77% & late apoptosis = 2.05%) (Table 3 and Fig 4B).
Flow cytometry cell apoptosis analysis was used to investigate the apoptotic effect of compound 16 as follows.
[…] cells were treated with compound 16 (2.44 μM) for 48 h, collected by trypsin, centrifuged, washed two successive times with PBS, suspended in 500 μl binding buffer, and double stained with 5 μl Annexin V-FITC and 5 μl PI in the dark at room temperature for 15 min. The stained cells were measured using Epics XL-MCL™ Flow Cytometer and analyzed using Flowing software. […]
as §1
Flow cytometry cell apoptosis analysis was used to investigate the apoptotic effect of the synthesized compounds. […] cells were treated with compound 16 (2.44 µM) for 48 h, collected by trypsin, centrifuged, washed two successive times with PBS, suspended in 500 μl binding buffer, and double stained with 5 μl Annexin V-FITC and 5 μl PI in the dark at room temperature for 15 min. The stained cells were measured using Epics XL-MCL™ Flow Cytometer and analyzed using Flowing software.

CCCNc1nc2ccccc2c2nnc(C(F)(F)F)n12 [Compound 16, N-Propyl-3-(trifluoromethyl)-[1,2,4]triazolo[4,3-c]quinazolin-5-amine]
IC50 ([1]; 50% inhibition concentration of DNA/methyl green assay, read-out: DNA/Methyl green (IC50)): 10.2 ± 0.4 µM
LogIC50 (best-fit value, DNA/Topo-II Inhibition (%) curve) ([1]; log of drug concentration in uM, supplement curve fit): 1.011
HillSlope (best-fit value, DNA/Topo-II Inhibition (%) curve) ([1]; supplement curve fit): 0.3743
Reduction of Bcl-2 level compared to control (Bcl-2): 1.9 fold
Protein expression (normalized to β-actin) Bcl-2 (Bcl-2; control = 1.00): 0.52 ± 0.08
Apoptosis Early (Right Bottom) (HCT-116 cells; mean ± SEM): 46.77 ± 0.83 %
Apoptosis Late (Right Top) (HCT-116 cells; mean ± SEM): 2.05 ± 0.92%
Necrosis (Left Top) (HCT-116 cells; mean ± SEM): 0.90 ± 0.36
Viable (Left Bottom) (HCT-116 cells; mean ± SEM): 50.28 ± 2.10
Programmed cell death (early + late apoptosis) (HCT-116 cells; control cells 5.62%): 48.82%
